Assay results as given in patent US8551937B2, “Peptide having an extending action for half-life of object peptide in plasma” (priority 2008, dated 2013).
Where a SMILES comes first, the peptide text is derived from it.

Test: Motilin immunoreactivity concentration in plasma, half-life after intravenous administration (Example 6)
Format: in vivo, rat
Conditions: for half-life: SD, rat, plasma, 10 nmol/kg, male rats, N = 3, read-out: T½ Mean Value
Procedure: The experiment was carried out using rats into which polyethylene tube (PE-50 manufactured by Clay Adams) was previously inserted into thigh artery under an anesthetized condition with Nembutal. As to a test system, male SD strain rats (Nippon Charles River) of 7 weeks age were used where one group comprised 3 rats. Human type motilin or a derivative thereof in a dose of 10 nmol/kg was administered into tail vein of the rat and the blood before the administration and until 60 minutes after the administration was collected by a polyethylene tube inserted into the thigh artery. To the collected blood were added EDTA (manufactured by Dojin Laboratories) and aprotinin (manufactured by Bayer) as a stabilizer and an anti-coagulant, respectively and the plasma was separated therefrom by centrifugal separation.

Structure (SMILES) | half-life | disappearance half-time extending action in vivo compared with native motilin (rats)
CC[C@H](C)[C@H](NC(=O)[C@@H]1CCCN1C(=O)[C@@H](NC(=O)[C@@H](N)Cc1ccccc1)C(C)C)C(=O)N[C@@H](Cc1ccccc1)C(=O)N[C@H](C(=O)N[C@@H](Cc1ccc(O)cc1)C(=O)NCC(=O)N[C@@H](CCC(=O)O)C(=O)N[C@@H](CC(C)C)C(=O)N[C@@H](CCC(N)=O)C(=O)N[C@@H](CCCNC(=N)N)C(=O)N[C@@H](CO)C(=O)N1CCC[C@H]1C(=O)N[C@@H](CCC(=O)O)C(=O)N[C@@H](Cc1c[nH]cn1)C(=O)N[C@@H](CCC(N)=O)C(=O)N[C@@H](CCCNC(=N)N)C(=O)N[C@H](C(=O)N[C@@H](CCC(N)=O)C(=O)N[C@@H](CCC(N)=O)C(=O)N[C@@H](CCCNC(=N)N)C(=O)N[C@@H](CCCCN)C(=O)N[C@@H](CCC(=O)O)C(=O)N[C@@H](CO)C(=O)N[C@@H](CCCCN)C(=O)N[C@@H](CCCCN)C(=O)N1CCC[C@H]1C(=O)N1CCC[C@H]1C(=O)N[C@@H](C)C(=O)N[C@@H](CCCCN)C(=O)N[C@@H](CC(C)C)C(=O)N[C@@H](CCC(N)=O)C(=O)N1CCC[C@H]1C(=O)N[C@@H](CCCNC(=N)N)C(=O)O)C(C)C)[C@@H](C)O [Chimeric motilin (A)] (H-FVPIFTYGELQRSPEHQRVQQRKESKKPPAKLQPR-OH; N-terminus and C-terminus assumed) | 11.7 min | –
CC[C@H](C)[C@H](NC(=O)[C@@H]1CCCN1C(=O)[C@@H](NC(=O)[C@@H](N)Cc1ccccc1)C(C)C)C(=O)N[C@@H](Cc1ccccc1)C(=O)N[C@H](C(=O)N[C@@H](Cc1ccc(O)cc1)C(=O)NCC(=O)N[C@@H](CCC(=O)O)C(=O)N[C@@H](CC(C)C)C(=O)N[C@@H](CCC(N)=O)C(=O)N[C@@H](CCCNC(=N)N)C(=O)N[C@@H](CCC(=O)O)C(=O)N[C@@H](Cc1c[nH]cn1)C(=O)N[C@@H](CCC(N)=O)C(=O)N[C@@H](CCCNC(=N)N)C(=O)N[C@H](C(=O)N[C@@H](CCC(N)=O)C(=O)N[C@@H](CCC(N)=O)C(=O)N[C@@H](CCCNC(=N)N)C(=O)N[C@@H](CCCCN)C(=O)N[C@@H](CCC(=O)O)C(=O)N[C@@H](CO)C(=O)N[C@@H](CCCCN)C(=O)N[C@@H](CCCCN)C(=O)N1CCC[C@H]1C(=O)N1CCC[C@H]1C(=O)N[C@@H](C)C(=O)N[C@@H](CCCCN)C(=O)N[C@@H](CC(C)C)C(=O)N[C@@H](CCC(N)=O)C(=O)N1CCC[C@H]1C(=O)N[C@@H](CCCNC(=N)N)C(=O)O)C(C)C)[C@@H](C)O [Chimeric motilin (B)] (H-FVPIFTYGELQREHQRVQQRKESKKPPAKLQPR-OH; N-terminus and C-terminus assumed) | 11.1 min | –
CC[C@H](C)[C@H](NC(=O)[C@@H]1CCCN1C(=O)[C@@H](NC(=O)[C@@H](N)Cc1ccccc1)C(C)C)C(=O)N[C@@H](Cc1ccccc1)C(=O)N[C@H](C(=O)N[C@@H](Cc1ccc(O)cc1)C(=O)NCC(=O)N[C@@H](CCC(=O)O)C(=O)N[C@@H](CC(C)C)C(=O)N[C@@H](CCC(N)=O)C(=O)N[C@@H](CCCNC(=N)N)C(=O)N[C@@H](CCC(N)=O)C(=O)N[C@@H](CCCNC(=N)N)C(=O)N[C@H](C(=O)N[C@@H](CCC(N)=O)C(=O)N[C@@H](CCC(N)=O)C(=O)N[C@@H](CCCNC(=N)N)C(=O)N[C@@H](CCCCN)C(=O)N[C@@H](CCC(=O)O)C(=O)N[C@@H](CO)C(=O)N[C@@H](CCCCN)C(=O)N[C@@H](CCCCN)C(=O)N1CCC[C@H]1C(=O)N1CCC[C@H]1C(=O)N[C@@H](C)C(=O)N[C@@H](CCCCN)C(=O)N[C@@H](CC(C)C)C(=O)N[C@@H](CCC(N)=O)C(=O)N1CCC[C@H]1C(=O)N[C@@H](CCCNC(=N)N)C(=O)O)C(C)C)[C@@H](C)O [Chimeric motilin (C)] (H-FVPIFTYGELQRQRVQQRKESKKPPAKLQPR-OH; N-terminus and C-terminus assumed) | 8.9 min | –
CC[C@H](C)[C@H](NC(=O)[C@@H]1CCCN1C(=O)[C@@H](NC(=O)[C@@H](N)Cc1ccccc1)C(C)C)C(=O)N[C@@H](Cc1ccccc1)C(=O)N[C@H](C(=O)N[C@@H](Cc1ccc(O)cc1)C(=O)NCC(=O)N[C@@H](CCC(=O)O)C(=O)N[C@@H](CC(C)C)C(=O)N[C@@H](CCC(N)=O)C(=O)N[C@@H](CCCNC(=N)N)C(=O)N[C@@H](CCC(N)=O)C(=O)N[C@@H](CCCNC(=N)N)C(=O)N[C@@H](CCCCN)C(=O)N[C@@H](CCC(=O)O)C(=O)N[C@@H](CO)C(=O)N[C@@H](CCCCN)C(=O)N[C@@H](CCCCN)C(=O)N1CCC[C@H]1C(=O)N1CCC[C@H]1C(=O)N[C@@H](C)C(=O)N[C@@H](CCCCN)C(=O)N[C@@H](CC(C)C)C(=O)N[C@@H](CCC(N)=O)C(=O)N1CCC[C@H]1C(=O)N[C@@H](CCCNC(=N)N)C(=O)O)[C@@H](C)O [Chimeric motilin (E)] (H-FVPIFTYGELQRQRKESKKPPAKLQPR-OH; N-terminus and C-terminus assumed) | 8.03 min | –
CC[C@H](C)[C@H](NC(=O)[C@@H]1CCCN1C(=O)[C@@H](NC(=O)[C@@H](N)Cc1ccccc1)C(C)C)C(=O)N[C@@H](Cc1ccccc1)C(=O)N[C@H](C(=O)N[C@@H](Cc1ccc(O)cc1)C(=O)NCC(=O)N[C@@H](CCC(=O)O)C(=O)N[C@@H](CC(C)C)C(=O)N[C@@H](CCC(N)=O)C(=O)N[C@@H](CCCNC(=N)N)C(=O)N[C@@H](CCCCN)C(=O)N[C@@H](CCC(=O)O)C(=O)N[C@@H](CO)C(=O)N[C@@H](CCCCN)C(=O)N[C@@H](CCCCN)C(=O)N1CCC[C@H]1C(=O)N1CCC[C@H]1C(=O)N[C@@H](C)C(=O)N[C@@H](CCCCN)C(=O)N[C@@H](CC(C)C)C(=O)N[C@@H](CCC(N)=O)C(=O)N1CCC[C@H]1C(=O)N[C@@H](CCCNC(=N)N)C(=O)O)[C@@H](C)O [Chimeric motilin (F)] (H-FVPIFTYGELQRKESKKPPAKLQPR-OH; N-terminus and C-terminus assumed) | 9.37 min | –
CC[C@H](C)[C@H](NC(=O)[C@@H]1CCCN1C(=O)[C@@H](NC(=O)[C@@H](N)Cc1ccccc1)C(C)C)C(=O)N[C@@H](Cc1ccccc1)C(=O)N[C@H](C(=O)N[C@@H](Cc1ccc(O)cc1)C(=O)NCC(=O)N[C@@H](CCC(=O)O)C(=O)N[C@@H](CC(C)C)C(=O)N[C@@H](CCC(N)=O)C(=O)N[C@@H](CCCNC(=N)N)C(=O)N[C@@H](CO)C(=O)N[C@@H](CCCCN)C(=O)N[C@@H](CCCCN)C(=O)N1CCC[C@H]1C(=O)N1CCC[C@H]1C(=O)N[C@@H](C)C(=O)N[C@@H](CCCCN)C(=O)N[C@@H](CC(C)C)C(=O)N[C@@H](CCC(N)=O)C(=O)N1CCC[C@H]1C(=O)N[C@@H](CCCNC(=N)N)C(=O)O)[C@@H](C)O [Chimeric motilin (G)] (H-FVPIFTYGELQRSKKPPAKLQPR-OH; N-terminus and C-terminus assumed) | 5.25 min | unable to be confirmed
CC[C@H](C)[C@H](NC(=O)[C@@H]1CCCN1C(=O)[C@@H](NC(=O)[C@@H](N)Cc1ccccc1)C(C)C)C(=O)N[C@@H](Cc1ccccc1)C(=O)N[C@H](C(=O)N[C@@H](Cc1ccc(O)cc1)C(=O)NCC(=O)N[C@@H](CCC(=O)O)C(=O)N[C@@H](CC(C)C)C(=O)N[C@@H](CCC(N)=O)C(=O)N[C@@H](CCCNC(=N)N)C(=O)N[C@H](C(=O)N[C@@H](CCC(N)=O)C(=O)N[C@@H](CCC(N)=O)C(=O)N[C@@H](CCCNC(=N)N)C(=O)N[C@@H](CCCCN)C(=O)N[C@@H](CCC(=O)O)C(=O)N[C@@H](CO)C(=O)N[C@@H](CCCCN)C(=O)N[C@@H](CCCCN)C(=O)O)C(C)C)[C@@H](C)O [Chimeric motilin (K)] (H-FVPIFTYGELQRVQQRKESKK-OH; N-terminus and C-terminus assumed) | 6.14 min | –

Next, values leading:

half-life | disappearance half-time extending action in vivo compared with native motilin (rats) | Structure (SMILES)
10.4 min | – | CC[C@H](C)[C@H](NC(=O)[C@@H]1CCCN1C(=O)[C@@H](NC(=O)[C@@H](N)Cc1ccccc1)C(C)C)C(=O)N[C@@H](Cc1ccccc1)C(=O)N[C@H](C(=O)N[C@@H](Cc1ccc(O)cc1)C(=O)NCC(=O)N[C@@H](CCC(=O)O)C(=O)N[C@@H](CC(C)C)C(=O)N[C@@H](CCC(N)=O)C(=O)N[C@@H](CCCNC(=N)N)C(=O)N[C@H](C(=O)N[C@@H](CCC(N)=O)C(=O)N[C@@H](CCC(N)=O)C(=O)N[C@@H](CCCNC(=N)N)C(=O)N[C@@H](CCCCN)C(=O)N[C@@H](CCC(=O)O)C(=O)N[C@@H](CO)C(=O)N[C@@H](CCCCN)C(=O)N[C@@H](CCCCN)C(=O)N1CCC[C@H]1C(=O)N1CCC[C@H]1C(=O)N[C@@H](C)C(=O)N[C@@H](CCCCN)C(=O)N[C@@H](CC(C)C)C(=O)N[C@@H](CCC(N)=O)C(=O)O)C(C)C)[C@@H](C)O [Chimeric motilin (H)] (H-FVPIFTYGELQRVQQRKESKKPPAKLQ-OH; N-terminus and C-terminus assumed)
5.76 min | – | CC[C@H](C)[C@H](NC(=O)[C@@H]1CCCN1C(=O)[C@@H](NC(=O)[C@@H](N)Cc1ccccc1)C(C)C)C(=O)N[C@@H](Cc1ccccc1)C(=O)N[C@H](C(=O)N[C@@H](Cc1ccc(O)cc1)C(=O)NCC(=O)N[C@@H](CCC(=O)O)C(=O)N[C@@H](CC(C)C)C(=O)N[C@@H](CCC(N)=O)C(=O)N[C@@H](CCCNC(=N)N)C(=O)N[C@H](C(=O)N[C@@H](CCC(N)=O)C(=O)N[C@@H](CCC(N)=O)C(=O)N[C@@H](CCCNC(=N)N)C(=O)N[C@@H](CCCCN)C(=O)N[C@@H](CCC(=O)O)C(=O)N[C@@H](CO)C(=O)N[C@@H](CCCCN)C(=O)N[C@@H](CCCCN)C(=O)N1CCC[C@H]1C(=O)N1CCC[C@H]1C(=O)N[C@@H](C)C(=O)N[C@@H](CCCCN)C(=O)O)C(C)C)[C@@H](C)O [Chimeric motilin (I)] (H-FVPIFTYGELQRVQQRKESKKPPAK-OH; N-terminus and C-terminus assumed)
6.34 min | – | CC[C@H](C)[C@H](NC(=O)[C@@H]1CCCN1C(=O)[C@@H](NC(=O)[C@@H](N)Cc1ccccc1)C(C)C)C(=O)N[C@@H](Cc1ccccc1)C(=O)N[C@H](C(=O)N[C@@H](Cc1ccc(O)cc1)C(=O)NCC(=O)N[C@@H](CCC(=O)O)C(=O)N[C@@H](CC(C)C)C(=O)N[C@@H](CCC(N)=O)C(=O)N[C@@H](CCCNC(=N)N)C(=O)N[C@H](C(=O)N[C@@H](CCC(N)=O)C(=O)N[C@@H](CCC(N)=O)C(=O)N[C@@H](CCCNC(=N)N)C(=O)N[C@@H](CCCCN)C(=O)N[C@@H](CCC(=O)O)C(=O)N[C@@H](CO)C(=O)N[C@@H](CCCCN)C(=O)N[C@@H](CCCCN)C(=O)N1CCC[C@H]1C(=O)N1CCC[C@H]1C(=O)O)C(C)C)[C@@H](C)O [Chimeric motilin (J)] (H-FVPIFTYGELQRVQQRKESKKPP-OH; N-terminus and C-terminus assumed)
